Results on three compounds are retold here after patent US12642870B2, “Compositions and methods for delivery of nucleic acids” (Poseida Therapeutics, Inc., priority 2020, dated 2026).

Each structure is given as a SMILES string.

A short description of data set [1]: Physical characterisation of mRNA-containing LNPs (DLS, NTA, zeta potential). The format is physicochemical. The following applies: Fluc mRNA LNPs: compound/DOPE/Cholesterol/DMG-PEG2000 41.44/45.85/10/2.7, lipid:RNA 40:1 (w/w). The protocol:
A series of ten multi-component LNP compositions of the present disclosure comprising exemplary compounds of Formula (I) was prepared by combining various percentages of an exemplary compound of Formula (I), the phospholipid DOPE, the structural lipid cholesterol (Chol) and 1,2-dimyristoyl-sn-glycerol methoxypolyethylene glycol (DMG-PEG2000; Avanti Polar Lipids, Alabaster, Alabama, USA).
Individual 25 mg/ml stock solutions were prepared by solubilizing the lipids in 200-proof HPLC-grade ethanol and stock solutions were stored at −80° C. until formulated. At the time of formulation, the lipid stock solutions were briefly allowed to equilibrate to room temp and then placed on a hot plate maintained at a temperature range of 50-55° C.
A 1 mg/mi solution of the desired mRNA to be incorporated into the LNPs was added to 150 mM sodium acetate buffer (pH 5.2) to form a stock solution and kept on ice. The lipid phase was mixed with the aqueous m RNA phase inside a microfluidic chip using a NanoAssemblr® instrument (Precision Nanosystems, Vancouver, BC, Canada) according to the manufacturer's instructions to form LNP compositions comprising encapsulated mRNAs.
The resultant mRNA LNP compositions were then transferred to a Repligen Float-A-Lyzer dialysis device—having a molecular weight cut off (MWCO) of 8-10 kDa (Spectrum Chemical Mfg. Corp, CA, USA) and processed by dialysis against phosphate buffered saline (PBS) (dialysate:dialysis buffer volume at least 1:200 v/v), pH 7.4 overnight at 4° C. (or alternatively room temperature for at least 4 hours), to remove the 25% ethanol and achieve a complete buffer exchange. In some experiments the LNPs were further concentrated by in an Amicon® Ultra-4 centrifugal filter unit, MWCO-30 kDa (Millipore Sigma, USA) spun at ˜4100×g in an ultracentrifuge. The mRNA LNPs were then stored at 4° C. until further use.
A series of multicomponent LNP compositions comprising one of COMPOUNDS 1-8 described in Example 1 and the mRNA encoding flue was prepared according to Example 2 and the physical characteristics of the resulting LNPs were analyzed.
In a separate experiment, LNP compositions of the present disclosure comprising mRNA encoding firefly luciferase (hereafter “Fluc”; TriLink) and COMPOUNDS 1-8 were prepared as described in Example 2 by combining one of COMPOUNDS 1-8, the phospholipid DOPE, the structural lipid cholesterol (Chol) and 1,2-dimyristoyl-sn-glycerol methoxypolyethylene glycol (DMG-PEG2000) in the percentages presented in Table 8: […]

Data set [2] can be described thus: Physical characterisation of DNA-containing LNPs (DLS, NTA, zeta potential). The following applies: nano-pB-EF1a-GFP DNA LNPs: compound/DOPE/Cholesterol/DMG-PEG2000 38.0/50.0/10.0/2.0, lipid:DNA 45:1 (w/w). The format is physicochemical. The protocol: LNP compositions of the present disclosure comprising DNA, a nanoplasmid encoding a piggyBac transposon, wherein the piggyBac transposon comprised GFP under control of the EF1a promoter (herein referred to as the nano-pB-EF1a-GFP), and one of COMPOUNDS 1-8 were prepared as described in Example 3 by combining one of COMPOUNDS 1-8, the phospholipid DOPE, the structural lipid cholesterol (Chol) and 1,2-dimyristoyl-sn-glycerol methoxypolyethylene glycol (DMG-PEG2000) in the following percentages in Table 20: […]

In data set [3] the test system is HEK293T cells. Kind of data set: In vitro LNP delivery of eGFP mRNA to adherent cells. The format is cell-based. The following applies: 0.125 μg eGFP mRNA per well, 24 hr, flow cytometry, LNP 41.44/45.85/10.0/2.7, lipid:RNA 40:1. The protocol: HEK293T cells were seeded in 96 well plates and grown to 70% confluence in DMEM+10% FBS] under a 5% CO2 atmosphere at 37° C. A 0.125 μg amount of 5′-CleanCap-eGFP mRNA (TriLink Biotech) formulated with LNP compositions comprising COMPOUNDS 1-4 as prepared in Example 3 at the following percentages in Table 10 was added to each well.
After incubating for 24 hr, cells were imaged for GFP expression with a Leica fluorescence microscope and then detached from 96 well plate to quantitate expression by flow cytometry.

Data set [4] concerns Resting T-cells. The data set can be described thus: LNP delivery of eGFP mRNA to resting T-cells. The format is cell-based. The following applies: eGFP mRNA LNPs 0.4144:0.4585:0.1:0.027, lipid:nucleic acid 40:1, 0.5 ug mRNA per well, 24 hrs. The method, then: In one experiment, LNPs of the present disclosure comprising one of COMPOUNDS 1-4, DOPE, Cholesterol and DMG-PEG2000 at a molar ratio of 0.4144:0.4585:0.1:0.027 and further comprising Cleancap mRNA encoding eGFP were formed on a NanoAssemblr® (Precision Nanosystems). […] Resting T-cells were treated with varying amounts of the four LNP composition and at 24 hrs, the cells were analyzed to determine the percentage of cells that were viable and that expressed […]. The results of the analysis are shown in Table 12 for a dose of 0.5 ug mRNA per well.

Data set [5] relates to BALB/C mice. Kind of data set: In vivo intramuscular LNP delivery of fLuciferase mRNA, bioluminescent imaging. The following applies: for Ave flux (p/s) / Avg IM flux n = 2: intramuscular 20 μg fLuciferase mRNA; for Ave flux (p/s): LNP COMPOUND 2/DOPE/Cholesterol/DMG-PEG2000 32.411/32.411/32.411/2.77; for Avg IM flux n = 2: right hind limb, BLI at 4 hr, LNP compound/DOPE/Cholesterol/DMG-PEG2000 33.5/32.0/33.5/1.0, lipid:RNA 25:1. The protocol:
Adult female BALB/C mice (n=2/group) were intramuscularly administered in the right hind limb of each mouse 20 μg of 5′-CleanCap-fLuciferase mRNA (TriLink Biotech) formulated with LNP composition comprising COMPOUND 2 as prepared according to Example 2 in the following percentages shown in Table 16:
The location and extent of luciferase expression in treated and untreated mice were determined at 4 hr and 24 hr by bioluminescent imaging (BLI) of anesthetized mice using an IVIS Lumina in vivo imaging system (Perkin Elmer) according to the manufacturer's instructions. Briefly, mice were anesthetized using isoflurane in oxygen, and placed supine on a heated stage. Mice were then administered D-luciferin (Perkin-Elmer #122799) IP, and BLI was performed.
In another experiment, adult female BALB/C mice (n=2/group) were intramuscularly administered in the right hind limb of each mouse 20 μg of 5′-CleanCap-fLuciferase mRNA (TriLink Biotech) formulated with LNP composition comprising one of COMPOUNDS 3-8 as prepared according to Example 3 in the following percentages shown in Table 18:
The location and extent of luciferase expression in treated and untreated mice were determined at 4 hr by bioluminescent imaging (BLI) of anesthetized mice as described above.

The test system of data set [6] is Resting T-cells. The data set can be described thus: LNP delivery of nano-pB-EF1a-GFP DNA to resting T-cells. It is filed as cell-based. The following applies: nano-pB-EF1a-GFP DNA LNPs 0.38:0.5:0.1:0.02, lipid:nucleic acid 45:1, 24 hr. From the text: The experiments described in this example used CD4/CD8 positive T-cells isolated from a leukapheresis product from a healthy donor.

Data set [7] has as its system HEK293T cells. The data set can be described thus: In vitro LNP delivery of nano-pB-EF1a-GFP DNA to adherent cells. The format is cell-based. The following applies: 0.5 μg nano-pB-EF1a-GFP DNA per well in LNPs, flow cytometry. The method, then:
HEK293T cells were seeded in 96 well plates and grown to 70% confluence in [DMEM+10% FBS] under a 5% CO2 atmosphere at 37° C. A 0.5 μg amount of nano-pB-EF1a-GFP DNA formulated with LNP compositions comprising COMPOUNDS 1, 3 & 4 as prepared in Examples 3 and 8 was added to each well. Following treatment with the LNPs, the cells were imaged for GFP+expression with a Leica fluorescence microscope and then detached from 96 well plate to quantitate expression by flow cytometry.

The subject of data set [8] is TF1a cells. The data set can be described thus: Genetic modification of suspension cell line by LNP-delivered nanoplasmid transposon. It is filed as cell-based. The following applies: TF1a cells stably expressing SPB transposase; nanoplasmid transposon LNP 0.38:0.5:0.1:0.02; Day 6, flow cytometry. The method, then:
In general, TF1a cells (a suspension cell line) were engineered to stably express the SPB transposase. Cell were plated at 5e5/ml. LNP comprising a nanoplasmid transposon coding for eGFP under control of the EF1a […] were added to each well at a concentration of […] (0.125 ug total) of DNA per well. Medium was exchanged and cells were split by spinning cells down in a v-bottom plate and resuspending cells in fresh RPMI+10% FBS+2 ug/ml Puromycin media on D4 post LNP addition). Day=6, cells were assessed for GFP expression by epifluorescence microscopy and flow cytometry.
For example, LNP compositions comprising COMPOUND 3 were prepared comprising COMPOUND 3, DOPE, Cholesterol and DMG-PEG2000 at a molar ratio of 0.38:0.5:0.1:0.02 and the nanoplasmid transposon and cells were assessed at Day 6 for GFP expression by epifluorescence microscopy and flow cytometry.

Turning to `CC(C)C(CCC1CCC(C(=O)NCCCCCCNC(=O)C2CCC(CCC(SCCN(C)C)C(C)C)C(SCCN(C)C)C2)CC1SCCN(C)C)SCCN(C)C` (stereo not shown) [Compound 2], the “Diameter (DLS; nm)” value in data set [1] came to 79.6 nm; in data set [2], 80.6 nm. Also, the “Diameter (NTA; nm)” value is given as 113.8 nm in data set [1] and 105.0 nm in data set [2]. Also, the figures for the PDI in data set [1] and in data set [2] were 0.259 and 0.221, respectively. For the same compound, the “Total Particles/ml” value in data set [1] is 2.97E+10 Particles/ml. For the same compound, the “Zeta Potential (mV)” value was −0.19 mV in data set [1] and −0.02 mV in data set [2]. For the same compound, the entries for the “% Viable GFP+” value in data set [3], in data set [4] and in data set [6] were 17.5%, 5.5% and 4.4%, respectively. For the same compound, the “Ave flux (p/s)” value came to 4.58E+6 p/s in data set [5] (Lipid:RNA 25:1, 4 hr); 3.53E+6 p/s in data set [5] (Lipid:RNA 25:1, 24 hr); 9.67E+5 p/s in data set [5] (Lipid:RNA 50:1, 4 hr); 8.09E+5 p/s in data set [5] (Lipid:RNA 50:1, 24 hr). The “location of luciferase expression (BLI)” value in data set [5] (intramuscular 20 μg fLuciferase mRNA in right hind limb) is “detected by BLI predominantly at the injection site”.
Turning to `CC(C)C(CCC(C)C(CCC1CCC(C(=O)NCCCCCCCCCCCCNC(=O)C2CCC(CCC(SCCN(C)C)C(C)CCC(SCCN(C)C)C(C)C)C(SCCN(C)C)C2)CC1SCCN(C)C)SCCN(C)C)SCCN(C)C` (stereo not shown) [Compound 3], the “% Viable GFP+” value in data set [3] is 19.4%; in data set [4], 10.9%; in data set [7], 97.1%; in data set [6] it was 18.0%. Also, the “Avg IM flux n = 2” value in data set [5] is 5.8E+6. The “cells positive for GFP expression” value in data set [8] was approximately 9.8%.
With `CC(C)C(CCC1CCC(C(=O)NCCCCCCCCCCCCNC(=O)C2CCC(CCC(SCCN(C)C)C(C)C)C(SCCN(C)C)C2)CC1SCCN(C)C)SCCN(C)C` (stereo not shown) [Compound 4], the “% Viable GFP+” value is 90.1% in data set [3], 2.9% in data set [4], approximately 17.1% in data set [7] and 2.3% in data set [6]. In addition, in data set [5], the “Avg IM flux n = 2” value turned out to be 2.07E+6.
